{"source": "PubChem BioAssay (NCI)", "note": "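48-hour exposure; five concentrations; linearly interpolated endpoints. The concentration for 50% growth inhibition is given as GI50. The concentration for full growth arrest is given as TGI.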"}
{"test_system": "SK-MEL-2 melanoma", "assay": "NCI anticancer screen, dose series, 48 h", "units": {"TGI": "µM", "GI50": "µM"}}
{"smiles": "CC1=C2C(=C[C@H]3[C@]4(C)CCCC(C)(C)[C@H]4CC[C@]34O[C@H]24)OC1=O", "TGI": "> 100"}
{"smiles": "COc1cc2c(Nc3cc(Cl)c(OC)c(Cl)c3)c(C#N)cnc2cc1OCCCN1CCN(C)CC1", "GI50": 1.32, "TGI": 2.9}
{"smiles": "COC(=O)C1C(O)C(C(=O)OC)C(C)N(C)C1C", "note": "(stereo not drawn)", "TGI": "> 100"}
{"smiles": "c1ccc2c(c1)c1c(n2CCOCCN2CCOCC2)CCCC1", "TGI": 52.4}
{"smiles": "CCOC(=O)c1c(-c2ccccc2)c(-c2ccccc2)cn1C", "TGI": "> 10"}
{"test_system": "SK-MEL-28 melanoma", "assay": "NCI anticancer screen, dose series, 48 h", "units": {"TGI": "µM", "GI50": "µM"}}
{"smiles": "C=C1c2cc3c(cc2CC12Cc1cc4c(cc1C2=O)CCC4)CCC3", "note": "(stereo not drawn)", "TGI": "> 100"}
{"smiles": "NNC1=N/C(=C\\c2ccco2)C(Cl)=N1", "TGI": "> 100"}
{"smiles": "CC1=C2C(=C[C@H]3[C@]4(C)CCCC(C)(C)[C@H]4CC[C@]34O[C@H]24)OC1=O", "TGI": "> 100"}
{"smiles": "COc1cc2c(Nc3cc(Cl)c(OC)c(Cl)c3)c(C#N)cnc2cc1OCCCN1CCN(C)CC1", "GI50": 1.97, "TGI": 4.53}
{"smiles": "COC(=O)C1C(O)C(C(=O)OC)C(C)N(C)C1C", "note": "(stereo not drawn)", "TGI": "> 100"}
{"smiles": "c1ccc2c(c1)c1c(n2CCOCCN2CCOCC2)CCCC1", "TGI": 52}
{"test_system": "SK-MEL-5 melanoma", "assay": "NCI anticancer screen, dose series, 48 h", "units": {"TGI": "µM", "GI50": "µM"}}
{"smiles": "C=C1c2cc3c(cc2CC12Cc1cc4c(cc1C2=O)CCC4)CCC3", "note": "(stereo not drawn)", "TGI": "> 100"}
{"smiles": "NNC1=N/C(=C\\c2ccco2)C(Cl)=N1", "TGI": "> 100"}
{"smiles": "CC1=C2C(=C[C@H]3[C@]4(C)CCCC(C)(C)[C@H]4CC[C@]34O[C@H]24)OC1=O", "TGI": "> 100"}
{"smiles": "COc1cc2c(Nc3cc(Cl)c(OC)c(Cl)c3)c(C#N)cnc2cc1OCCCN1CCN(C)CC1", "GI50": 1.37, "TGI": 2.71}
{"smiles": "COC(=O)C1C(O)C(C(=O)OC)C(C)N(C)C1C", "note": "(stereo not drawn)", "TGI": "> 100"}
{"smiles": "c1ccc2c(c1)c1c(n2CCOCCN2CCOCC2)CCCC1", "TGI": 48.9}
{"test_system": "SK-OV-3 ovarian", "assay": "NCI anticancer screen, dose series, 48 h", "units": {"TGI": "µM", "GI50": "µM"}}
{"smiles": "C=C1c2cc3c(cc2CC12Cc1cc4c(cc1C2=O)CCC4)CCC3", "note": "(stereo not drawn)", "TGI": "> 100"}
{"smiles": "NNC1=N/C(=C\\c2ccco2)C(Cl)=N1", "TGI": "> 100"}
{"smiles": "CC1=C2C(=C[C@H]3[C@]4(C)CCCC(C)(C)[C@H]4CC[C@]34O[C@H]24)OC1=O", "TGI": "> 100"}
{"smiles": "COc1cc2c(Nc3cc(Cl)c(OC)c(Cl)c3)c(C#N)cnc2cc1OCCCN1CCN(C)CC1", "GI50": 0.378, "TGI": 16.6}
{"smiles": "COC(=O)C1C(O)C(C(=O)OC)C(C)N(C)C1C", "note": "(stereo not drawn)", "TGI": "> 100"}
{"smiles": "c1ccc2c(c1)c1c(n2CCOCCN2CCOCC2)CCCC1", "TGI": "> 100"}
{"smiles": "CCOC(=O)c1c(-c2ccccc2)c(-c2ccccc2)cn1C", "TGI": "> 10"}
{"test_system": "SN12C renal", "assay": "NCI anticancer screen, dose series, 48 h", "units": {"TGI": "µM", "GI50": "µM"}}
{"smiles": "NNC1=N/C(=C\\c2ccco2)C(Cl)=N1", "TGI": "> 100"}
{"smiles": "CC1=C2C(=C[C@H]3[C@]4(C)CCCC(C)(C)[C@H]4CC[C@]34O[C@H]24)OC1=O", "TGI": "> 100"}
{"smiles": "COc1cc2c(Nc3cc(Cl)c(OC)c(Cl)c3)c(C#N)cnc2cc1OCCCN1CCN(C)CC1", "GI50": 0.95, "TGI": 17.2}
{"smiles": "COC(=O)C1C(O)C(C(=O)OC)C(C)N(C)C1C", "note": "(stereo not drawn)", "TGI": "> 100"}
{"smiles": "CCOC(=O)c1c(-c2ccccc2)c(-c2ccccc2)cn1C", "TGI": "> 10"}
{"test_system": "SNB-19 CNS", "assay": "NCI anticancer screen, dose series, 48 h", "units": {"TGI": "µM", "GI50": "µM"}}
{"smiles": "C=C1c2cc3c(cc2CC12Cc1cc4c(cc1C2=O)CCC4)CCC3", "note": "(stereo not drawn)", "TGI": "> 100"}
{"smiles": "NNC1=N/C(=C\\c2ccco2)C(Cl)=N1", "TGI": "> 100"}
{"smiles": "CC1=C2C(=C[C@H]3[C@]4(C)CCCC(C)(C)[C@H]4CC[C@]34O[C@H]24)OC1=O", "TGI": "> 100"}
{"smiles": "COc1cc2c(Nc3cc(Cl)c(OC)c(Cl)c3)c(C#N)cnc2cc1OCCCN1CCN(C)CC1", "GI50": 4.57, "TGI": 14.9}
{"smiles": "COC(=O)C1C(O)C(C(=O)OC)C(C)N(C)C1C", "note": "(stereo not drawn)", "TGI": "> 100"}
{"smiles": "c1ccc2c(c1)c1c(n2CCOCCN2CCOCC2)CCCC1", "TGI": "> 100"}
{"smiles": "CCOC(=O)c1c(-c2ccccc2)c(-c2ccccc2)cn1C", "TGI": "> 10"}
{"test_system": "SNB-75 CNS", "assay": "NCI anticancer screen, dose series, 48 h", "units": {"TGI": "µM", "GI50": "µM"}}
{"smiles": "C=C1c2cc3c(cc2CC12Cc1cc4c(cc1C2=O)CCC4)CCC3", "note": "(stereo not drawn)", "TGI": "> 100"}
{"smiles": "NNC1=N/C(=C\\c2ccco2)C(Cl)=N1", "TGI": "> 100"}
{"smiles": "CC1=C2C(=C[C@H]3[C@]4(C)CCCC(C)(C)[C@H]4CC[C@]34O[C@H]24)OC1=O", "TGI": "> 100"}
{"smiles": "COc1cc2c(Nc3cc(Cl)c(OC)c(Cl)c3)c(C#N)cnc2cc1OCCCN1CCN(C)CC1", "GI50": 6.57, "TGI": 25.2}
{"smiles": "c1ccc2c(c1)c1c(n2CCOCCN2CCOCC2)CCCC1", "TGI": 70.2}
{"smiles": "CCOC(=O)c1c(-c2ccccc2)c(-c2ccccc2)cn1C", "TGI": "> 10"}
{"test_system": "SR leukemia", "assay": "NCI anticancer screen, dose series, 48 h", "units": {"TGI": "µM", "GI50": "µM"}}
{"smiles": "C=C1c2cc3c(cc2CC12Cc1cc4c(cc1C2=O)CCC4)CCC3", "note": "(stereo not drawn)", "TGI": "> 100"}
{"smiles": "NNC1=N/C(=C\\c2ccco2)C(Cl)=N1", "TGI": 72.1}
{"smiles": "COc1cc2c(Nc3cc(Cl)c(OC)c(Cl)c3)c(C#N)cnc2cc1OCCCN1CCN(C)CC1", "GI50": 1.53, "TGI": 4.41}
